Data reported in US9943528B2 (MAPREG, priority 2016, dated 2018).

What was measured:
Noradrenergic α1 = test: CNS receptor binding assay, α1; conditions: MAP4343 10 μM; [3H] prazosin; rat cerebral cortex
From the text: (§1) MAP4343 has been screened for in vitro affinity to 80 different CNS neurotransmitters receptors using various validated binding assays.

[1] = system: adult male Sprague Dawley rats; conditions: U.S. Pat. No. 8,334,278, cited from earlier work
GABA (non-selective) = test: CNS receptor binding assay, GABA; conditions: MAP4343 10 μM; [3H] GABA; rat cerebral cortex
From the text: as §1

NMDA PCP site = test: CNS receptor binding assay, NMDA PCP site; conditions: MAP4343 10 μM; [3H] TCP; rat cerebral cortex
From the text: as §1

MAP2 = test: Binding (affinity) by displacement of PREG-3H
Wistar Kyoto (WKY) rats = test: Neurogenesis in dentate gyrus of hippocampus (BrdU/NeuN) in WKY rats; type: in vivo, rat; conditions: chronic MAP4343 15 mg/kg, s.c., 24 days, FIG. 9C
Experimental: Wistar Kyoto (WKY) rats are considered as a model of treatment-resistant depression, while Wistar (WI) rats are used as control strain of WKY rats. During this experiment both WI and WKY rats were administered with MAP4343 (15 mg/Kg), subcutaneously (s.c.) for 24 days. Behavioral tests were performed at during the last week of treatment, and rats were finally sacrificed for addressing neurogenesis in Gyrus dentate of hippocampus using histological experiments. Organization of this protocol is depicted in FIG. 7.
MAP4343 was diluted in sesame oil, and then administered subcutaneously (s.c.) at the dose of 15 mg/kg during 24 days. The vehicle group received only the sesame oil (1 ml/kg) in the similar conditions.
Injections of BrdU were performed twice at D0, 24 and 22 hours before the beginning of treatment. All animals were equally given two injections of BrdU (75 mg/kg, dissolved in saline solution intraperitoneally), at two hours pulse-chase interval. […]
Neurogenesis in each dentate gyrus was manually measured by quantification of positive cells co-labelled with BrdU/NeuN, using a microscope equipped with epifluorescence (Zeiss Axiovert 200, objective 40×). Total number of new neurons in the entire dentate gyrus was estimated by multiplying the measured number by 8 (that corresponds to the number of unused sections separating each coronal sections used to count the newly-formed neurons). […]

Question: For `CO[C@H]1CC[C@@]2(C)C(=CC[C@H]3[C@@H]4CC[C@H](C(C)=O)[C@@]4(C)CC[C@@H]32)C1` [MAP4343, 3β-methoxy-pregna-5-ene-20-one], which “% Inhibition of control specific binding” value (Noradrenergic α1) is on record?
Answer: The value was 4%.

Question: What about the “memory retention in NOR” value ([1]; naïve adult male Sprague Dawley rats) of the same compound?
Answer: Its value is “increases memory retention”.

Question: And the “memory deficit in the NOR test” value ([1]; social-isolated adult male Sprague Dawley rats)?
Answer: The value was “induces recovery of memory deficit”.

Question: What about the “% Inhibition of control specific binding” value (GABA (non-selective)) of the same compound?
Answer: The value was 2%.

Question: What about the “% Inhibition of control specific binding” value (NMDA PCP site) of the same compound?
Answer: The value was −10%.

Question: And the Affinity (MAP2)?
Answer: Its Affinity is 100% of PREG.

Question: What about the “number of newly-formed neurons (BrdU and Neu-N) in dentate gyrus, change vs WKY receiving only vehicle” value (Wistar Kyoto (WKY) rats) of the same compound?
Answer: Its value is “+71%”.
